In EP0095295B1, “Cyclic peptide derivatives” (ELI LILLY AND COMPANY, priority 1982, dated 1987):

What was measured:
[1] = fermentation medium, pH values above pH 7.2
Text: In stirred fermentors the pH may be controlled by sensor controllers. Where this is impractical, such as in flask fermentors, pH may be controlled by adding 0.1 molar phosphate buffer to the medium prior to addition of the substrate.

[2] = solubility (listed characteristics); type: physicochemical; conditions: water
[3] = acute toxicity in mice; type: in vivo; conditions: administered intravenously to mice
Protocol: The acute toxicity of NTrp-p-(n-dodecyloxy)benzoyl-A―21978C, when administered intravenously to mice and expressed as LDso, was 67.5 mg/kg.

| Compound | stability (alkaline hydrolysis) [1] | Solubility [2] | acute toxicity expressed as LDso [3] |
| --- | --- | --- | --- |
| C[C@H](CC(=O)O)[C@@H]1NC(=O)[C@@H](CO)NC(=O)CNC(=O)[C@H](CC(=O)O)NC(=O)[C@@H](C)NC(=O)[C@H](CC(=O)O)NC(=O)[C@H](CCCN)NC(=O)CNC(=O)[C@@H](NC(=O)[C@H](CC(=O)O)NC(=O)[C@H](CC(N)=O)NC(=O)[C@@H](N)Cc2c[nH]c3ccccc23)[C@@H](C)OC(=O)[C@H](CC(=O)c2ccccc2N)NC1=O [A-21978C nucleus] | increasingly subject to alkaline hydrolysis | soluble in water | – |
| CCCCCCCCCCCCOc1ccc(C(=O)N[C@@H](Cc2c[nH]c3ccccc23)C(=O)N[C@@H](CC(N)=O)C(=O)N[C@@H](CC(=O)O)C(=O)N[C@@H]2C(=O)NCC(=O)N[C@@H](CCCN)C(=O)N[C@@H](CC(=O)O)C(=O)N[C@H](C)C(=O)N[C@@H](CC(=O)O)C(=O)NCC(=O)N[C@H](CO)C(=O)N[C@@H]([C@H](C)CC(=O)O)C(=O)N[C@@H](CC(=O)c3ccccc3N)C(=O)O[C@@H]2C)cc1 [NTrp-p-(n-dodecyloxy)benzoyl-A―21978C, NTrp-P-(n-dodecyloxy)benzoyl-A-21978C Nucleus] | – | – | 67.5 mg/kg |
